# Reference: US20230330093A1, “APPLICATION OF NITROGEN-CONTAINING SATURATED HETEROCYCLIC COMPOUND” (SHANGHAI PHARMACEUTICALS HOLDING CO., LTD., priority 2020, published 2023)
# Test system: cynomolgus monkeys
# Assay: 4-week safety study: routine ECG analysis
# Assay type: in vivo
# Conditions: for QT / QTc / HR / QRS: Male
# Procedure: Routine ECG analysis was performed at each scheduled time (day 1 after administration, d01 and d02 after administration, 1 and 24 h after administration on day 1, before administration, and 1 and 24 h after administration on day 26 and day 56). P-wave, R-wave, T-wave, P-R intervals, Q-T intervals, QRS duration and heart rate were recorded by an ECG system using derivation DII (ECG-6951E, Shanghai, China).
structure (smiles),measurement,setting,value
COC(=O)NCCCn1nc([C@@H](C)N(C(=O)[C@H]2CNCCO2)C2CC2)c2ccc(C)nc21 [compound of Formula I],QT,"20 mg/kg, 1 h (d 1)",158.0 ± 11.0 ms
same,QTc,"20 mg/kg, 1 h (d 1)",241.4 ± 12.3 ms
same,HR,"20 mg/kg, 1 h (d 26)",260.0 ± 12.4 bmp
same,QRS,"20 mg/kg, 1 h (d 26)",36.0 ± 5.5 ms
same,QT,"20 mg/kg, 1 h (d 26)",146.0 ± 11.4 ms
same,QTc,"20 mg/kg, 1 h (d 26)",237.8 ± 16.3 ms
same,HR,"20 mg/kg, 24 h (d 1)",206.1 ± 20.7 bmp
same,QRS,"20 mg/kg, 24 h (d 1)",28.0 ± 4.5 ms
same,QT,"20 mg/kg, 24 h (d 1)",166.0 ± 8.9 ms
same,QTc,"20 mg/kg, 24 h (d 1)",250.0 ± 10.4 ms
same,HR,"20 mg/kg, 24 h (d 26)",264.9 ± 16.1 bmp
same,QRS,"20 mg/kg, 24 h (d 26)",34.0 ± 5.5 ms
same,QT,"20 mg/kg, 24 h (d 26)",146.0 ± 11.4 ms
same,QTc,"20 mg/kg, 24 h (d 26)",239.2 ± 14.8 ms
same,HR,"20 mg/kg, d0",198.4 ± 16.5 bmp
same,QRS,"20 mg/kg, d0",34.0 ± 8.9 ms
same,QT,"20 mg/kg, d0",164.0 ± 11.4 ms
same,QTc,"20 mg/kg, d0",243.9 ± 11.7 ms
same,HR,"20 mg/kg, d 56",225.6 ± 2.4 bmp
same,QRS,"20 mg/kg, d 56",30.0 ± 0.0 ms
same,QT,"20 mg/kg, d 56",145.0 ± 7.1 ms
same,QTc,"20 mg/kg, d 56",225.4 ± 10.2 ms
same,HR,"100 mg/kg, 1 h (d 1)",230.0 ± 19.9 bmp
same,QRS,"100 mg/kg, 1 h (d 1)",38.0 ± 4.5 ms
same,QT,"100 mg/kg, 1 h (d 1)",156.0 ± 11.4 ms
same,QTc,"100 mg/kg, 1 h (d 1)",243.8 ± 16.5 ms
same,HR,"100 mg/kg, 1 h (d 26)",256.9 ± 16.7 bmp
same,QRS,"100 mg/kg, 1 h (d 26)",36.0 ± 5.5 ms
same,QT,"100 mg/kg, 1 h (d 26)",144.0 ± 5.5 ms
same,QTc,"100 mg/kg, 1 h (d 26)",233.8 ± 12.2 ms
same,HR,"100 mg/kg, 24 h (d 1)",208.2 ± 10.4 bmp
same,QRS,"100 mg/kg, 24 h (d 1)",36.0 ± 8.9 ms
same,QT,"100 mg/kg, 24 h (d 1)",162.0 ± 11.0 ms
same,QTc,"100 mg/kg, 24 h (d 1)",245.3 ± 18.6 ms
same,HR,"100 mg/kg, 24 h (d 26)",260.7 ± 9.1 bmp
same,QRS,"100 mg/kg, 24 h (d 26)",36.0 ± 5.5 ms
same,QT,"100 mg/kg, 24 h (d 26)",144.0 ± 8.9 ms
same,QTc,"100 mg/kg, 24 h (d 26)",234.9 ± 13.9 ms
same,HR,"100 mg/kg, d0",215.4 ± 11.2 bmp
same,QRS,"100 mg/kg, d0",32.0 ± 8.4 ms
same,QT,"100 mg/kg, d0",154.0 ± 16.7 ms
same,QTc,"100 mg/kg, d0",235.6 ± 24.5 ms
same,HR,"100 mg/kg, d 56",225.6 ± 2.4 bmp
same,QRS,"100 mg/kg, d 56",35.0 ± 7.1 ms
same,QT,"100 mg/kg, d 56",165.0 ± 7.1 ms
same,QTc,"100 mg/kg, d 56",256.6 ± 11.9 ms
same,HR,"450 mg/kg, 1 h (d 1)",217.4 ± 3.2 bmp
same,QRS,"450 mg/kg, 1 h (d 1)",36.7 ± 5.8 ms
same,QT,"450 mg/kg, 1 h (d 1)",170.0 ± 10.0 ms
same,QTc,"450 mg/kg, 1 h (d 1)",261.1 ± 16.0 ms
same,HR,"450 mg/kg, 1 h (d 26)",247.6 ± 22.6 bmp
same,QRS,"450 mg/kg, 1 h (d 26)",36.0 ± 13.4 ms
same,QT,"450 mg/kg, 1 h (d 26)",150.0 ± 17.3 ms
same,QTc,"450 mg/kg, 1 h (d 26)",240.0 ± 23.7 ms
same,HR,"450 mg/kg, 24 h (d 1)",211.0 ± 15.9 bmp
same,QRS,"450 mg/kg, 24 h (d 1)",32.0 ± 4.5 ms
same,QT,"450 mg/kg, 24 h (d 1)",166.0 ± 8.9 ms
same,QTc,"450 mg/kg, 24 h (d 1)",252.1 ± 9.4 ms
same,HR,"450 mg/kg, 24 h (d 26)",210.4 ± 49.9 bmp
same,QRS,"450 mg/kg, 24 h (d 26)",38.0 ± 4.5 ms
same,QT,"450 mg/kg, 24 h (d 26)",158.0 ± 13.0 ms
same,QTc,"450 mg/kg, 24 h (d 26)",237.7 ± 12.2 ms
same,HR,"450 mg/kg, d0",214.3 ± 17.7 bmp
same,QRS,"450 mg/kg, d0",34.0 ± 5.5 ms
same,QT,"450 mg/kg, d0",156.0 ± 5.5 ms
same,QTc,"450 mg/kg, d0",238.2 ± 7.2 ms
same,HR,"450 mg/kg, d 56",203.3 ± 15.5 bmp
same,QRS,"450 mg/kg, d 56",35.0 ± 7.1 ms
same,QT,"450 mg/kg, d 56",160.0 ± 0.0 ms
same,QTc,"450 mg/kg, d 56",240.2 ± 6.1 ms
same,QRS intervals,"high-dose females, 1 h after administration on d1 and d26",Prolonged
same,QRS intervals,"one high-dose male (animal No. 411), 1 h after administration on d26, prolonged",60 ms
same,Sinus arrhythmia,"one high-dose male, 1 h after administration on d26",Sinus arrhythmia was observed in one high-dose male
same,QTc intervals,"one mid-dose female (animal No. 303), 1 h after administration on d26, prolonged",296 ms
